These results are taken from PubChem BioAssay AID2834 (Southern Research Specialized Biocontainment Screening …, 2010).

Active and inactive are the calls of the source.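 How the source made its calls: active means more than 40% inhibition of the growth reporter signal at one or more tested doses; inactive means below 40% inhibition at every dose.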

The test has as its system S. Typhimurium nmpC-GFP reporter (non-PhoP growth counter-screen), low Mg2+, 4 h. The experiment in a line: non-PhoP GFP expression and growth suppression – purified and synthesized compounds, set 2, counter-screen for PhoP regulon inhibitor project, dose response (AID 2834). In general terms: Counterscreens check selectivity or assay interference.
Regarding `CCn1cc(C(=O)O)c(=O)c2cc(F)c(N3CCN(C(=S)Nc4ccccc4C)CC3)cc21`, the IC50 (commonly the point on the concentration scale where inhibition reaches its midpoint) is > 150 µM (inactive).

Regarding `COc1cccc(NC(=S)NCc2ccc(Cl)cc2)c1`, the IC50 was > 150 µM (inactive).

Turning to `O=S(=O)(Nc1c(S(=O)(=O)c2ccccc2)c2nc3ccccc3nc2n1C1CCCCC1)c1ccccc1`, the IC50 was less than 0.15 µM.

Take `CCCCn1c(NS(=O)(=O)c2ccccc2)c(S(=O)(=O)c2ccc(C)cc2)c2nc3ccccc3nc21`: the half-maximal inhibitory concentration (IC50) is less than 0.15 µM.

As to `S=C(NCc1ccc(Cl)cc1)Nc1ccc(Cl)cc1`, the IC50 is > 150 µM (inactive).

With `O=C1C2=C(Nc3ccccc3SC2c2ccsc2)c2ccccc21` (configuration not stated), the IC50 was > 150 µM (inactive).

Consider `O=C1c2ccccc2C2=Nc3ccccc3SC(c3ccccc3F)C12` (configuration not stated), for which the IC50 was less than 0.15 µM.

Consider `O=C(Nc1ccccc1)N1CCCN(Cc2ccc(F)cc2)C1`, for which the IC50 was > 150 µM (inactive).

Turning to `Cc1cccc(NC(=S)NCc2ccc(Cl)cc2)c1`, the IC50 was > 150 µM (inactive).

As for `O=C1C2=C(Nc3ccccc3SC2c2ccccc2C(F)(F)F)c2ccccc21` (configuration not stated), the IC50 was > 150 µM (inactive).

`S=C(NCc1ccc(Cl)cc1)Nc1cccnc1`: the IC50 is > 150 µM (inactive).

In the case of `COc1ccc(NC(=S)NCc2ccc(Cl)cc2)cc1`, the IC50 is > 150 µM (inactive).

Take `S=C(NCc1ccc(Cl)cc1)Nc1ccc(Br)cc1`: the IC50 is > 150 µM (inactive).

Turning to `S=C(NCc1ccc(Cl)cc1)Nc1cccc(Cl)c1`, the IC50 was > 150 µM (inactive).

`COc1ccc(CNC(=S)Nc2ccncc2)cc1`: the IC50 was > 150 µM (inactive).

In the case of `O=c1c2ccccc2[nH]c2ccc(F)cc12`, the IC50 was less than 0.15 µM.

For the molecule `Cc1ccc(Nc2cc(C)c3c(O)cccc3n2)cc1C`, the IC50 is less than 0.15 µM.

On to `O=C(Nc1ccc(Br)cc1)N1CCCN(Cc2ccccc2F)C1`, for which the IC50 is > 150 µM (inactive).

In the case of `O=C1C2=C(Nc3ccccc3SC2c2ccc(C(F)(F)F)cc2)c2ccccc21` (configuration not stated), the IC50 was > 150 µM (inactive).

As to `CN(C)CCCN(C(=O)CCc1ccccc1)c1nc2ccc(Cl)cc2s1`, the concentration for half-maximal inhibition (IC50) was less than 0.15 µM.

`O=C(Nc1nnc(-c2cccs2)o1)c1cccc(C(F)(F)F)c1`: the IC50 is less than 0.15 µM.

`CCOc1ccc(NC(=S)N2CCN(c3cc4c(cc3F)c(=O)c(C(=O)O)cn4CC)CC2)cc1`: the IC50 was > 150 µM (inactive).

As for `CCCCn1c(NS(=O)(=O)c2ccc(C)cc2)c(S(=O)(=O)c2ccccc2)c2nc3ccccc3nc21`, the half-maximal inhibitory concentration (IC50) is less than 0.15 µM.

On to `CN1CCc2nc(SCC(=O)Nc3cccc(F)c3)c(C#N)c(-c3cccs3)c2C1`, for which the half-maximal inhibitory concentration (IC50) was less than 0.15 µM.

For `CCn1cc(C(=O)O)c(=O)c2cc(F)c(N3CCN(C(=S)Nc4ccccc4C(F)(F)F)CC3)cc21`, the IC50 is 76.4 µM.

`CCn1cc(C(=O)O)c(=O)c2cc(F)c(N3CCN(C(=S)NCc4ccccc4)CC3)cc21`: the IC50 was > 150 µM (inactive).

With `CCn1cc(C(=O)O)c(=O)c2cc(F)c(N3CCN(C(=S)NC(=O)c4ccccc4F)CC3)cc21`, the half-inhibitory concentration (IC50) was less than 0.15 µM.

Take `O=C1C2=C(Nc3ccccc3SC2c2cccc(Cl)c2)c2ccccc21` (configuration not stated): the IC50 was > 150 µM (inactive).

With `O=C1C2=C(Nc3ccccc3SC2c2ccccc2Br)c2ccccc21` (configuration not stated), the IC50 is > 150 µM (inactive).

For the molecule `O=C(Nc1ccccc1Cl)N1CCCN(Cc2ccccc2F)C1`, the IC50 was > 150 µM (inactive).

Turning to `Cc1ccc(CN2CCCN(C(=O)Nc3ccc(Cl)cc3)C2)cc1`, the IC50 is > 150 µM (inactive).

In the case of `S=C(NCc1ccccc1Cl)Nc1ccncc1`, the IC50 is > 150 µM (inactive).

For `O=C(Nc1ccc(Cl)cc1)N1CCCN(Cc2ccccc2F)C1`, the IC50 was less than 0.15 µM.

As to `O=C1C2=C(Nc3ccccc3SC2c2ccco2)c2ccccc21` (configuration not stated), the IC50 is less than 0.15 µM.

For the molecule `CCn1cc(C(=O)O)c(=O)c2cc(F)c(N3CCN(C(=S)Nc4ccc(Cl)cc4)CC3)cc21`, the IC50 is 131 µM.

For the molecule `COc1c(N2CCN(C(=S)NCc3ccccc3)C(C)C2)c(F)cc2c(=O)c(C(=O)O)cn(C3CC3)c12` (configuration not stated), the IC50 is less than 0.15 µM.

Turning to `O=C(NCc1ccccc1)N1CCCN(Cc2ccccc2F)C1`, the IC50 was > 150 µM (inactive).

On to `O=C(Nc1ccc(Cl)cc1)N1CCCN(Cc2ccc(F)cc2)C1`, for which the IC50 is > 150 µM (inactive).

`CN1CCN(C2=Cc3cc(Cl)ccc3Sc3cc(F)ccc32)CC1`: the IC50 is less than 0.15 µM.

In the case of `CCn1cc(C(=O)O)c(=O)c2cc(F)c(N3CCN(C(=S)Nc4ccccc4Cl)CC3)cc21`, the IC50 was > 150 µM (inactive).

On to `CCn1cc(C(=O)O)c(=O)c2cc(F)c(N3CCN(C(=S)NC)CC3)cc21`, for which the IC50 is > 150 µM (inactive).

As to `COc1cccc(C2Sc3ccccc3NC3=C2C(=O)c2ccccc23)c1` (configuration not stated), the IC50 is > 150 µM (inactive).

On to `CSc1nc2cc(Oc3cccc(Cl)c3Cl)c(Cl)cc2[nH]1`, for which the IC50 is less than 0.15 µM.

As for `O=C(Nc1ccccc1)N1CCCN(Cc2ccccc2F)C1`, the IC50 is > 150 µM (inactive).

Take `O=C(Nc1cccnc1)c1cc(Br)c(Br)s1`: the IC50 is less than 0.15 µM.

As to `CCCCCNC(=O)c1cn(CC)c2cc(N3CCN(C)CC3)c(F)cc2c1=O`, the IC50 is less than 0.15 µM.

Regarding `Fc1ccccc1NC(=S)NCc1ccc(Cl)cc1`, the IC50 is > 150 µM (inactive).

For the molecule `Cc1ccc(NC(=S)NCc2ccc(Cl)cc2)cc1`, the IC50 was > 150 µM (inactive).

`COc1ccc(NC(=O)c2cc(Br)c(Br)s2)cn1`: the IC50 was less than 0.15 µM.

`O=C1C2=C(Nc3ccccc3SC2c2ccccc2Cl)c2ccccc21` (configuration not stated): the IC50 was > 150 µM (inactive).

`CCn1cc(C(=O)O)c(=O)c2cc(F)c(N3CCN(C(=S)NC(=O)c4ccccc4Cl)CC3)cc21`: the half-inhibitory concentration (IC50) is less than 0.15 µM.

Consider `N#C/C(=C\c1ccc[nH]1)C(=O)NC1CC1`, for which the 50% inhibitory concentration (IC50) was less than 0.15 µM.

Take `C1=C(CCNc2ncnc3c2[nH]c2ccccc23)CCCC1`: the IC50 is less than 0.15 µM.

In the case of `O=[N+]([O-])c1ccc(CNC2CCCc3ccccc32)cc1` (configuration not stated), the 50% inhibitory concentration (IC50) was less than 0.15 µM.

Turning to `COc1ccccc1Nc1nc(NCc2ccco2)c2ccccc2n1`, the IC50 was less than 0.15 µM.

In the case of `O=C(O)c1cn(-c2ccc(F)cc2)c2cc(Cl)c(F)cc2c1=O`, the 50% inhibitory concentration (IC50) was less than 0.15 µM.

Take `COc1ccccc1NC(=O)N1CCCN(Cc2ccccc2F)C1`: the IC50 is > 150 µM (inactive).
